Biological target: T1, CCR2b (Homo sapiens, UniProt P41597)
T1 construct: host or cells: AequoScreen CCR2b cells
T1 sequence (P41597 1-360 isoform P41597-2): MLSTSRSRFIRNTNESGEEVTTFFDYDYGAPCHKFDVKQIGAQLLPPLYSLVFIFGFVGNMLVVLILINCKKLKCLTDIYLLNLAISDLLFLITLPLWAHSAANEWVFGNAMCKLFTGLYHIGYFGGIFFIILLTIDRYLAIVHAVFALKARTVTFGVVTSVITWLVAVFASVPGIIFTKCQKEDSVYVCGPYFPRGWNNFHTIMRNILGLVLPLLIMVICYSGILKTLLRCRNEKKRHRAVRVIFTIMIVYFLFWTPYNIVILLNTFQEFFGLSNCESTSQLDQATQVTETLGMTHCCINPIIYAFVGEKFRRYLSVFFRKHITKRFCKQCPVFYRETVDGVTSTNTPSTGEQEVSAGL
Assay: AequoScreen CCR2b calcium flux assay, antagonist mode against reference agonist MCP-1
Assay type: cell-based
Conditions: AequoScreen CCR2b (FAST-060A) cells; inhibition of reference agonist MCP-1 at its EC80; read-out: IC50 (μM) Ca^++flux
Method: The biological activity of the compounds described herein can be evaluated using assays known in the art, such as the AequoScreen™ assay.
AequoScreen™ CCR2b (FAST-060A) cells grown to mid-log phase in culture media without antibiotics are detached with PBS-EDTA, centrifuged and resuspended in assay buffer (DMEM/HAM's F12 with HEPES, without phenol red+0.1% BSA protease free) at a concentration of 1×10^6 cells/mL. Cells are incubated at room temperature for at least 4 hours with coelenterazine h. Dose response curves are performed before testing. The reference agonist is MCP-1.
For agonist testing, 50 μL of cell suspension is mixed with 50 μL of test compound in a 96-well plate. The resulting emission of light is recorded using a Hamamatsu Functional Drug Screening System 6000 (FDSS 6000).
Following an incubation of 15 minutes after the first injection, 100 μL of the resulting cell suspension containing the test compound is mixed with 100 μL of the reference agonist in the 96 well test plate. The resulting emission of light is recorded using the same luminometer as for agonist testing.
Agonist activity of a test compound can be expressed as a percentage of the activity of the reference agonist at its EC100 concentration. Antagonist activity of a test compound can be expressed as a percentage of the inhibition of reference agonist activity at its EC80 concentration.

“3-Ethyl-6-((3-(methoxymethyl)-3-(3-(trifluoromethyl)-5,6,7,8-tetrahydro-1,6-naphthyridine-6-carbonyl)pyrrolidin-1-yl)methyl)benzo[d]oxazol-2(3H)-one [Example 42]” and “5-Bromo-6-((3-(methoxymethyl)-3-(3-(trifluoromethyl)-5,6,7,8-tetrahydro-1,6-naphthyridine-6-carbonyl)pyrrolidin-1-yl)methyl)-3-methylbenzo[d]oxazol-2(3H)-one [Example 43]” cannot be ordered by IC50: less than 0.2 µM for the first, less than 0.2 µM for the second.

Work on `Cn1c(=O)ccc2ccc(CN3CCC(CC4CC4)(C(=O)N4CCc5ncc(C(F)(F)F)cc5C4)C3)cc21` (single isomer, unassigned) [Example 4, 5 (Enantiomer I)] yielded an IC50 of less than 0.2 µM.
`Cn1c(=O)ccc2ccc(CN3CCC(CC4CC4)(C(=O)N4CCc5ncc(C(F)(F)F)cc5C4)C3)cc21` (single isomer, unassigned) [Example 4, 5 (Enantiomer II)] and `COCC1(C(=O)N2CCc3ncc(C(F)(F)F)cc3C2)CCN(Cc2ccc3ccc(=O)n(C)c3c2)C1` (single isomer, unassigned) [Example 26, 27 (Enantiomer I)] cannot be ordered by IC50: less than 0.2 µM for the first, less than 0.2 µM for the second.

Compared with `COCC1(C(=O)N2CCc3ncc(C(F)(F)F)cc3C2)CCN(Cc2ccc3ccc(=O)n(C)c3c2)C1` (single isomer, unassigned) [Example 26, 27 (Enantiomer II)], `COCC1(C(=O)N2CCc3ncc(C(F)(F)F)cc3C2)CCN(C2CCC(O)(c3ccc(OC)nc3)CC2)C1` (single isomer, unassigned) [Example 30, 31 (Isomer I), (1-(4-Hydroxy-4-(6-methoxypyridin-3-yl)cyclohexyl)-3-(methoxymethyl)pyrrolidin-3-yl)(3-(trifluoromethyl)-7,8-dihydro-1,6-naphthyridin-6(5H)-yl)methanone] is lower in IC50: greater than 1 µM for the first, less than 0.2 µM for the second. The second is the more potent here.

Compared with `COCC1(C(=O)N2CCc3ncc(C(F)(F)F)cc3C2)CCN(C2CCC(O)(c3ccc(OC)nc3)CC2)C1` (single isomer, unassigned) [Example 30, 31 (Isomer II), (1-(4-Hydroxy-4-(6-methoxypyridin-3-yl)cyclohexyl)-3-(methoxymethyl)pyrrolidin-3-yl)(3-(trifluoromethyl)-7,8-dihydro-1,6-naphthyridin-6(5H)-yl)methanone], `COCC1(C(=O)N2CCc3ncc(C(F)(F)F)cc3C2)CCN(Cc2ccc3oc(=O)n(C)c3c2)C1` (single isomer, unassigned) [Example 40, 41 (Enantiomer I)] is lower in IC50: greater than 1 µM for the first, less than 0.2 µM for the second. The second is the more potent here.

First: COCC1(C(=O)N2CCc3ncc(C(F)(F)F)cc3C2)CCN(Cc2ccc3oc(=O)n(C)c3c2)C1 (single isomer, unassigned) [Example 40, 41 (Enantiomer II)]
Second: COCC1(C(=O)N2CCc3ncc(C(F)(F)F)cc3C2)CCN(C2CCC(c3ccc(OC)nc3)CC2)C1 (single isomer, unassigned) [Example 50, 51 (Isomer I), (3-(Methoxymethyl)-1-(4-(6-methoxypyridin-3-yl)cyclohexyl)pyrrolidin-3-yl)(3-(trifluoromethyl)-7,8-dihydro-1,6-naphthyridin-6(5H)-yl)methanone]
The IC50 of the first is higher: 0.2 to 1 µM for the first, less than 0.2 µM for the second.

Compared with `COCC1(C(=O)N2CCc3ncc(C(F)(F)F)cc3C2)CCN(C2CCC(c3ccc(OC)nc3)CC2)C1` (single isomer, unassigned) [Example 50, 51 (Isomer II), (3-(Methoxymethyl)-1-(4-(6-methoxypyridin-3-yl)cyclohexyl)pyrrolidin-3-yl)(3-(trifluoromethyl)-7,8-dihydro-1,6-naphthyridin-6(5H)-yl)methanone], `COCC1(C(=O)N2CCc3ncc(C(F)(F)F)cc3C2)CCN(C2CCC(c3cncnc3)CC2)C1` (single isomer, unassigned) [Example 54, 55 (Isomer II), (3-(Methoxymethyl)-1-(4-(pyrimidin-5-yl)cyclohexyl)pyrrolidin-3-yl)(3-(trifluoromethyl)-7,8-dihydro-1,6-naphthyridin-6(5H)-yl)methanone] is higher in IC50: less than 0.2 µM for the first, 0.2 to 1 µM for the second. The first is the more potent here.

— patent publication US20100286136A1, “DIHYDRONAPHTHYRIDINYL AND RELATED COMPOUNDS FOR USE IN TREATING OPHTHALMOLOGICAL DISORDERS” (priority 2009, published 2010)
